Our source for the IC50 values is patent publication US20090111798A1, “5,6-DIHYDRO-1H-PYRIDIN-2-ONE COMPOUNDS” (priority 2006, published 2009).

Where a name gives a salt, the structure may show the parent alone.

Chain of NS5B polymerase (P26663 2420-3010): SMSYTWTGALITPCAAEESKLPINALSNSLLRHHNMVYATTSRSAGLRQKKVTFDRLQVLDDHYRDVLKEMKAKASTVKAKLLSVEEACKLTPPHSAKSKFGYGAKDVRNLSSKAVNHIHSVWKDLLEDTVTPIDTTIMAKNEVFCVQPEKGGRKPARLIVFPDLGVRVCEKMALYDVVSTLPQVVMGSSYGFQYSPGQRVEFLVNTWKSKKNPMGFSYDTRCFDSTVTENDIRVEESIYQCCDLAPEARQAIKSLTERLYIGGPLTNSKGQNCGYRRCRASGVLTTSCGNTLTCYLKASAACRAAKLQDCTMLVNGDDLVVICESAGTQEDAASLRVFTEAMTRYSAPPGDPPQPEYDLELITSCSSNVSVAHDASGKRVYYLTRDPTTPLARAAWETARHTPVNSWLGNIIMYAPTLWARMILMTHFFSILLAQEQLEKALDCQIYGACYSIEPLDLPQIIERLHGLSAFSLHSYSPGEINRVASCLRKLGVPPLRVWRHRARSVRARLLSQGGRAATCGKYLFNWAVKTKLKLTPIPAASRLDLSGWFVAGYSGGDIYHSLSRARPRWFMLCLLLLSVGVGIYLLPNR

The target of the assay is NS5B polymerase (Hepatitis C virus genotype 1b, UniProt P26663). In words: biochemical. As to conditions: NS5B polymerase inhibition; 20 nM enzyme, 75 min at 28° C. The procedure:
Compounds were tested for HCV polymerase inhibition. Assays were performed in a 96-well streptavidin-coated FlashPlate using 20 nM enzyme, 0.5μ Ci of [α-^33P]GTP, 0.6 μM GTP, and 250 nM 5′biotinylated oligo (rG13)/poly rC in 20 mM Tris-HCl, pH 7.5, 5 mM MgCl2, 5 mM dithiothreitol, 0.1 g/L bovine serum albumin, and 100 U/mL RNAse inhibitor. The reaction was stopped by aspiration after 75 min at 28° C. and the plate was washed several times. After washing and drying the plate, incorporated radioactivity was counted using a Microbeta scintillation counter. IC50 values were calculated relative to the uninhibited control and inhibition data were fitted to a 4-parameter IC50 equation.
As a reminder, the IC50 is the midpoint of a concentration-inhibition curve. Low values mean greater potency, high ones weaker potency. Compound `CS(=O)(=O)Nc1ccc2c(c1)S(=O)(=O)N=C(C1=C(O)[C@@H]3CC=CC[C@@H]3N(Cc3ccc(F)cc3)C1=O)N2` (relative stereo) [Example 37, cis-N-{3-[1-(4-Fluoro-benzyl)-4-hydroxy-2-oxo-1,2,4a,5,8,8a-hexahydro-quinolin-3-yl]-1,1-dioxo-1,4-dihydro-1λ^6 benzo[1,2,4]thiadiazin-7-yl}-methanesulfonamide] had an IC50 of 20 to 100 nM.

In the case of `CC(C)CCN1C(=O)C(C2=NS(=O)(=O)c3cc(NS(C)(=O)=O)ccc3N2)=C(O)[C@H]2CCC[C@H]21` (relative stereo) [Example 17, cis-N-{3-[2-(3-Methylbutyl)-5-hydroxy-3-oxo-2-aza-bicyclo[4.3.0]non-4-en-4-yl]-1,1-dioxo-1,4-dihydro-1λ^6-benzo[1,2,4]thiadiazin-7-yl}-methanesulfonamide], the IC50 was under 20 nM.

Consider `CS(=O)(=O)Nc1ccc2c(c1)S(=O)(=O)C=C(C1=C(O)[C@@H]3CCCCC[C@@H]3N(Cc3ccc(F)cc3)C1=O)N2` (relative stereo) [Example 57, cis-N-{3-[1-(4-Fluoro-benzyl)-4-hydroxy-2-oxo-2,4a,5,6,7,8,9,9a-octahydro-1H-cyclohepta[b]pyridin-3-yl]-1,1-dioxo-1,4-dihydro-1λ^6-benzo[1,4]thiazin-7-yl}-methanesulfonamide], for which the IC50 was under 20 nM.

On to `CS(=O)(=O)Nc1ccc2c(c1)S(=O)(=O)N=C(C1=C(O)[C@@H]3CCC[C@@H]3N(CC3CC3)C1=O)N2` [Example 30, (4aR,7aS)—N-[3-(1-Cyclopropylmethyl-4-hydroxy-2-oxo-2,4-a,5,6,7,7a-hexahydro-1H-[1]pyrindin-3-yl)-1,1-dioxo-1,4-dihydro-1λ^6-benzo[1,2,4]thiadiazin-7-yl]-methanesulfonamide], for which the IC50 fell in the range of 100 to 1000 nM.

`CS(=O)(=O)Nc1ccc2c(c1)S(=O)(=O)N=C(C1=C(O)C3CCCCCC3N(CCC3CC3)C1=O)N2` (mixture of isomers) [Example 58, N-{3-[1-(2-Cyclopropyl-ethyl)-4-hydroxy-2-oxo-2,4a,5,6,7,8,9,9a-octahydro-1H-cyclohepta[b]pyridin-3-yl]-1,1-dioxo-1,4-dihydro-1λ^6-benzo[1,2,4]thiadiazin-7-yl}-methanesulfonamide] gave an IC50 of 20 to 100 nM.

In the case of `O=C1C(C2=NS(=O)(=O)c3cc(C4=CCCS4(=O)=O)ccc3N2)=C(O)[C@@H]2CCC[C@@H]2N1Cc1ccc(F)cc1` [Example 44, (4aR,7aS)-3-[7-(1,1-Dioxo-4,5-dihydro-1H-1λ^6-thiophen-2-yl)-1,1-dioxo-1,4-dihydro-1λ^6-benzo[1,2,4]thiadiazin-3-yl]-1-(4-fluoro-benzyl)-4-hydroxy-1,4a,5,6,7,7a-hexahydro-[1]pyrindin-2-one], the IC50 lay in the range of 100 to 1000 nM.

`CN1C(=O)C(C2=NS(=O)(=O)c3cc(NS(C)(=O)=O)ccc3N2)=C(O)[C@@H]2CCC[C@@H]21` (relative stereo) [Example 53, cis-N-[3-(4-Hydroxy-1-methyl-2-oxo-2,4a,5,6,7,7a-hexahydro-1H-[1]pyrindin-3-yl)-1,1-dioxo-1,4-dihydro-1λ^6-benzo[1,2,4]thiadiazin-7-yl]-methanesulfonamide]: the IC50 lay within 1000 to 100000 nM.

Turning to `CC(C)(C)CCN1C(=O)C(C2=NS(=O)(=O)c3cc(NS(C)(=O)=O)ccc3N2)=C(O)[C@@H]2CCC[C@@H]21` [Example 29, (4aR,7aS)—N-{3-[1-(3,3-Dimethyl-butyl)-4-hydroxy-2-oxo-2,4-a,5,6,7,7a-hexahydro-1H-[1]pyrindin-3-yl]-1,1-dioxo-1,4-dihydro-1λ^6-benzo[1,2,4]thiadiazin-7-yl]-methanesulfonamide], the IC50 was under 20 nM.

The compound `CS(=O)(=O)Nc1ccc2c(c1)S(=O)(=O)N=C(C1=C(O)[C@@H]3CCC[C@@H]3N(CCc3ccccc3)C1=O)N2` (relative stereo) [Example 9, cis-N-[3-(4-Hydroxy-2-oxo-1-phenethyl-2,4-a,5,6,7,7a-hexahydro-1H-[1]pyrindin-3-yl)-1,1-dioxo-1,4-dihydro-1λ^6-benzo[1,2,4]thiadiazin-7-yl]-methanesulfonamide] gave an IC50 of 100 to 1000 nM.

`CS(=O)(=O)Nc1ccc2c(c1)S(=O)(=O)N=C(C1=C(O)C3CCCCCC3N(NC3CCC3)C1=O)N2` (stereo not shown) [Example 60, N-[3-(1-Cyclobutylamino-4-hydroxy-2-oxo-2,4a,5,6,7,8,9,9a-octahydro-1H-cyclohepta[b]pyridin-3-yl)-1,1-dioxo-1,4-dihydro-1λ^6-benzo[1,2,4]thiadiazin-7-yl]-methanesulfonamide trifluoroaceticacid salt] registered an IC50 of 20 to 100 nM.

In turn, `CS(=O)(=O)Nc1ccc2c(c1)S(=O)(=O)C=C(C1=C(O)[C@@H]3CCC[C@@H]3N(Cc3ccc(F)cc3)C1=O)N2` (relative stereo) [Example 25, cis-N-{3-[1-(4-Fluoro-benzyl)-4-hydroxy-2-oxo-2,4-a,5,6,7,7a-hexahydro-1H-[1]pyrindin-3-yl]-1,1-dioxo-1,4-dihydro-1λ^6-benzo[1,4]thiazin-7-yl}-methanesulfonamide] had an IC50 of 20 to 100 nM.

With `CS(=O)(=O)Nc1ccc2c(c1)S(=O)(=O)N=C(C1=C(O)[C@@H]3CCC[C@@H]3N(C3CCCC3)C1=O)N2` (relative stereo) [Example 10, cis-N-[3-(1-Cyclopentyl-4-hydroxy-2-oxo-2,4-a,5,6,7,7a-hexahydro-1H-[1]pyrindin-3-yl)-1,1-dioxo-1,4-dihydro-1λ^6-benzo[1,2,4]thiadiazin-7-yl]-methanesulfonamide], the IC50 fell in the range of 1000 to 100000 nM.

For the compound `CC(C)CCN1C(=O)C(C2=NS(=O)(=O)c3cc(N(C)S(C)(=O)=O)ccc3N2)=C(O)C2CCCCCC21` (stereo not shown) [Example 34, N-{3-[4-Hydroxy-1-(3-methyl-butyl)-2-oxo-2,4-a,5,6,7,8,9,9a-octahydro-1H-cyclohepta[b]pyridin-3-yl]-1,1-dioxo-1,4-dihydro-1λ^6-benzo[1,2,4]thiadiazin-7-yl}-N-methyl-methanesulfonamide], the IC50 is 100 to 1000 nM.

Regarding `CC(C)(C)CCN1C(=O)C(C2=NS(=O)(=O)c3cc(NS(C)(=O)=O)ccc3N2)=C(O)C2CCCCCCC21` (stereo not shown) [Example 35, N-{3-[1-(3,3-Dimethyl-butyl)-4-hydroxy-2-oxo-1,2,4a,5,6,7,8,9,10,10a-decahydro-cycloocta[b]pyridin-3-yl]-1,1-dioxo-1,4-dihydro-1λ^6-benzo[1,2,4]thiadiazin-7-yl]-methanesulfonamide], the 50% inhibitory concentration (IC50) lay in the range of 1000 to 100000 nM.

On to `CS(=O)(=O)Nc1ccc2c(c1)S(=O)(=O)N=C(C1=C(O)[C@@H]3CCC[C@@H]3N(c3ccccc3)C1=O)N2` (relative stereo) [Example 48, cis-N-[3-(4-Hydroxy-2-oxo-1-phenyl-2,4-a,5,6,7,7a-hexahydro-1H-[1]pyrindin-3-yl)-1,1-dioxo-1,4-dihydro-1λ^6-benzo[1,2,4]thiadiazin-7-yl]-methanesulfonamide], for which the half-inhibitory concentration (IC50) was 1000 to 100000 nM.

In the case of `O=C1C(C2=NS(=O)(=O)c3cc(N4CCCCC4)ccc3N2)=C(O)[C@@H]2CCC[C@@H]2N1Cc1ccc(F)cc1` [Example 42, (4aR,7aS)-3-(1,1-Dioxo-7-piperidin-1-yl-1,4-dihydro-1λ^6-benzo[1,2,4]thiadiazin-3-yl)-1-(4-fluoro-benzyl)-4-hydroxy-1,4-a,5,6,7,7a-hexahydro-[1]pyrindin-2-one], the IC50 lay within 1000 to 100000 nM.
